Assay results as given in PubChem BioAssay (NCI).
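48-hour exposure; five concentrations; linearly interpolated endpoints. TGI denotes the concentration required for complete inhibition of growth.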

How the values were obtained:
Experiment in all cases: DTP human tumour cell line panel, 48 h
[1] = tested on: 786-0 renal
[2] = tested on: A549 NSCLC
[3] = tested on: ACHN renal
[4] = tested on: CAKI-1 renal
[5] = tested on: CCRF-CEM leukemia
[6] = tested on: COLO 205 colon
[7] = tested on: DLD-1 colon
[8] = tested on: DMS 114 small cell lung
[9] = tested on: DMS 273 small cell lung
[10] = tested on: EKVX NSCLC
[11] = tested on: HCC-2998 colon
[12] = tested on: HCT-116 colon
[13] = tested on: HCT-15 colon
[14] = tested on: HL-60(TB) leukemia
[15] = tested on: HOP-62 NSCLC
[16] = tested on: HT29 colon
[17] = tested on: IGROV1 ovarian
[18] = tested on: K-562 leukemia
[19] = tested on: KM12 colon
[20] = tested on: KM20L2 colon
[21] = tested on: LOX IMVI melanoma
[22] = tested on: LXFL 529 NSCLC
[23] = tested on: M14 melanoma
[24] = tested on: M19-MEL melanoma
[25] = tested on: MALME-3M melanoma
[26] = tested on: MOLT-4 leukemia
[27] = tested on: NCI-H23 lung
[28] = tested on: NCI-H460 lung
[29] = tested on: NCI-H522 lung
[30] = tested on: OVCAR-3 ovarian
[31] = tested on: OVCAR-4 ovarian
[32] = tested on: OVCAR-5 ovarian
[33] = tested on: OVCAR-8 ovarian
[34] = tested on: RPMI-8226 leukemia
[35] = tested on: RXF 393 renal
[36] = tested on: SF-268 CNS
[37] = tested on: SF-295 CNS
[38] = tested on: SK-MEL-2 melanoma
[39] = tested on: SK-MEL-28 melanoma
[40] = tested on: SK-MEL-5 melanoma
[41] = tested on: SK-OV-3 ovarian
[42] = tested on: SN12C renal
[43] = tested on: SNB-19 CNS
[44] = tested on: SNB-75 CNS
[45] = tested on: SR leukemia
[46] = tested on: SW-620 colon
[47] = tested on: TK-10 renal
[48] = tested on: U251 CNS
[49] = tested on: UACC-257 melanoma
[50] = tested on: UACC-62 melanoma
[51] = tested on: UO-31 renal
[52] = tested on: XF 498 CNS
[53] = tested on: HOP-92 NSCLC
[54] = tested on: A498 renal
[55] = tested on: NCI-H226 lung
[56] = tested on: SF-539 CNS
[57] = tested on: SNB-78 CNS

For `CCCC(C(=O)OC)C1N=C(NC#N)N(Cc2ccccc2)C1=O` (centres undefined), the TGI [1] was greater than 100 µM, the TGI [2] was greater than 100 µM and the TGI [3] was greater than 100 µM. It also gave a TGI [4] greater than 100 µM, a TGI [5] greater than 100 µM and a TGI [6] greater than 100 µM. It also gave a TGI [7] greater than 100 µM, a TGI [8] greater than 100 µM and a TGI [9] greater than 100 µM. For the same compound, the TGI [10] was greater than 100 µM, the TGI [11] was greater than 100 µM and the TGI [12] was greater than 100 µM. It also gave a TGI [13] greater than 100 µM, a TGI [14] greater than 100 µM and a TGI [15] greater than 100 µM. It also gave a TGI [16] greater than 100 µM, a TGI [17] greater than 100 µM and a TGI [18] greater than 100 µM. The TGI [19] was greater than 100 µM, the TGI [20] was greater than 100 µM and the TGI [21] was greater than 100 µM. The TGI [22] was greater than 100 µM, the TGI [23] was greater than 100 µM and the TGI [24] was greater than 100 µM. It also gave a TGI [25] greater than 100 µM, a TGI [26] greater than 100 µM and a TGI [27] greater than 100 µM. It also gave a TGI [28] greater than 100 µM, a TGI [29] greater than 100 µM and a TGI [30] greater than 100 µM. The TGI [31] was greater than 100 µM, the TGI [32] was greater than 100 µM and the TGI [33] was greater than 100 µM. It also gave a TGI [34] greater than 100 µM, a TGI [35] greater than 100 µM and a TGI [36] greater than 100 µM. For the same compound, the TGI [37] was greater than 100 µM, the TGI [38] was greater than 100 µM and the TGI [39] was greater than 100 µM. For the same compound, the TGI [40] was greater than 100 µM, the TGI [41] was greater than 100 µM and the TGI [42] was greater than 100 µM. The TGI [43] was greater than 100 µM, the TGI [44] was 81.1 µM and the TGI [45] was greater than 100 µM. For the same compound, the TGI [46] was greater than 100 µM, the TGI [47] was greater than 100 µM and the TGI [48] was greater than 100 µM. It also gave a TGI [49] greater than 100 µM, a TGI [50] greater than 100 µM and a TGI [51] greater than 100 µM. For the same compound, the TGI [52] was greater than 100 µM.

`O=c1n(CC2CS2)c2ccccc2n1CC1CS1` (centres undefined) showed a TGI [3] greater than 100 µM, a TGI [4] greater than 100 µM and a TGI [5] of 79.7 µM. For the same compound, the TGI [6] was greater than 100 µM, the TGI [8] was greater than 100 µM and the TGI [9] was greater than 100 µM. For the same compound, the TGI [10] was greater than 100 µM, the TGI [11] was greater than 100 µM and the TGI [12] was 70.1 µM. The TGI [13] was greater than 100 µM, the TGI [14] was greater than 100 µM and the TGI [15] was greater than 100 µM. It also gave a TGI [53] greater than 100 µM, a TGI [17] greater than 100 µM and a TGI [18] greater than 100 µM. The TGI [19] was greater than 100 µM, the TGI [21] was greater than 100 µM and the TGI [22] was greater than 100 µM. The TGI [23] was greater than 100 µM, the TGI [24] was greater than 100 µM and the TGI [25] was 74.4 µM. The TGI [26] was 69.1 µM, the TGI [29] was greater than 100 µM and the TGI [30] was greater than 100 µM. The TGI [31] was greater than 100 µM, the TGI [34] was 88.6 µM and the TGI [36] was greater than 100 µM. The TGI [38] was greater than 100 µM, the TGI [41] was greater than 100 µM and the TGI [42] was greater than 100 µM. It also gave a TGI [44] greater than 100 µM, a TGI [45] greater than 100 µM and a TGI [50] greater than 100 µM. It also gave a TGI [52] greater than 100 µM.

`Cc1ncc(CBr)c(CBr)c1O` gave a TGI [1] greater than 100 µM, a TGI [54] greater than 100 µM and a TGI [3] greater than 100 µM. The TGI [4] was greater than 100 µM, the TGI [5] was greater than 100 µM and the TGI [6] was greater than 100 µM. The TGI [7] was greater than 100 µM, the TGI [8] was greater than 100 µM and the TGI [9] was greater than 100 µM. It also gave a TGI [11] greater than 100 µM, a TGI [12] greater than 100 µM and a TGI [14] greater than 100 µM. The TGI [15] was greater than 100 µM, the TGI [53] was greater than 100 µM and the TGI [17] was greater than 100 µM. For the same compound, the TGI [18] was greater than 100 µM, the TGI [22] was greater than 100 µM and the TGI [23] was greater than 100 µM. The TGI [24] was greater than 100 µM, the TGI [25] was greater than 100 µM and the TGI [26] was greater than 100 µM. The TGI [55] was greater than 100 µM, the TGI [27] was greater than 100 µM and the TGI [29] was greater than 100 µM. The TGI [31] was greater than 100 µM, the TGI [34] was greater than 100 µM and the TGI [36] was greater than 100 µM. It also gave a TGI [56] greater than 100 µM, a TGI [38] greater than 100 µM and a TGI [39] greater than 100 µM. It also gave a TGI [41] greater than 100 µM, a TGI [42] greater than 100 µM and a TGI [44] greater than 100 µM. The TGI [57] was greater than 100 µM, the TGI [45] was greater than 100 µM and the TGI [50] was greater than 100 µM. For the same compound, the TGI [51] was greater than 100 µM and the TGI [52] was greater than 100 µM.
